Read-outs that look alike come from different tables or passages of the source.
Tests used:
EEEV replicon = assay type: cell-based
WEEV = assay type: cell-based, WEEV strain Cba87
FMV [1] = tested on: FMV
FMV [2] = assay type: cell-based, Fort Morgan virus (FMV) strain CM4-146
SINV = details: 12.5 µM
BSR-T7/5 cells = assay: Toxicity studies (MTT or Alamar Blue cell viability) in the pWR-LUC:BSR-T7/5 system; details: for toxicity:activity (T:A) ratio (CC50/IC1050): pWR-LUC:BSR-T7/5 system
FMV [3] = assay type: cell-based, Fort Morgan virus (FMV) strain CM4-146; remark: listed apart in the source
WEEV replicon pWR-LUC = assay: organism not typed; assay type: cell-based
VEEV replicon = assay type: cell-based

Row | Structure (SMILES) | activity against EEEV replicon (in words) (EEEV replicon) | reduction of accumulation of viral RNAs encoding nsP2 or E1 (WEEV) | concentration effectively suppressing FMV-induced CPE (lowest concentration tested) (FMV [1]) | cell viability of FMV-infected cells (FMV [1]; 12.5 µM) | suppression of infectious FMV production (FMV [2]) | cell viability of SINV-infected cells (SINV) | cytotoxicity (in words) (BSR-T7/5 cells; FIG. 2 dose-response, BSR-T7/5 cells transfected with pWR-LUC) | toxicity:activity (T:A) ratio (CC50/IC1050) (BSR-T7/5 cells) | reduction of accumulation of viral RNAs encoding nsP2 or E1 (FMV [3]) | IC50 (WEEV replicon pWR-LUC; read-out: IC50) | activity against VEEV replicon (in words) (VEEV replicon) | suppression of fLUC expression (WEEV replicon pWR-LUC) | IC50 (WEEV replicon pWR-LUC; BSR-T7/5)
1 | O=C(NCc1ccco1)C1CCN(C(=O)c2cc3sccc3n2Cc2ccc(F)cc2)CC1 [Compound 32091] | broad activity | 80-90% | ≤ 3 µM | 70% | > 90% | 50% | minimal cytotoxicity | greater than 20 | 80-90% | 9.3 µM | broad activity |  | 
2 | NC(=O)c1ncn([C@@H]2O[C@H](CO)[C@@H](O)[C@H]2O)n1 [ribavirin] |  |  |  |  |  |  |  | 19 |  |  |  | approximately 80% | 16 µM
3 | COc1c(C)c2c(c(O)c1C/C=C(\C)CCC(=O)O)C(=O)OC2 [mycophenolic acid] |  |  |  |  |  |  |  |  |  |  |  | approximately 80% | 

From US20100152200A1, “[…] USES THEREOF” (priority 2008, published 2010)
